# Source: US20170173002A1, “Compositions and Methods for Treating an Infection” (CMPD LICENSING, LLC, priority 2015, published 2017)
# Experiments:
# [1] = test system: Shigella flexneri; experiment: Expected efficacy of antibiotic agents; conditions: expected efficacy against Shigella flexneri
# [2] = test system: Shigella sonnei; experiment: Expected efficacy of antibiotic agents; conditions: expected efficacy against Shigella sonnei
# [3] = test system: Staphylococcus epidermidis; experiment: Expected efficacy of antibiotic agents; conditions: expected efficacy against Staphylococcus epidermidis
# [4] = test system: Enterococcus faecium; experiment: Expected efficacy of antibiotic agents; conditions: expected efficacy against Enterococcus faecium
# [5] = test system: Rickettsiae; conditions: expected efficacy against Rickettsiae
# [6] = test system: Serratia marcescens; experiment: Expected efficacy of antibiotic agents; conditions: expected efficacy against Serratia marcescens
# [7] = test system: Francisella tularensis; conditions: expected efficacy against Francisella tularensis
# [8] = test system: Bartonella bacilliformis; experiment: Expected efficacy of antibiotic agents; conditions: expected efficacy against Bartonella bacilliformis
# [9] = test system: Methicillin resistant staph aureus (MRSA); experiment: Expected efficacy of antibiotic agents; conditions: expected efficacy against Methicillin resistant staph aureus (MRSA)
# [10] = test system: Providencia rettgeri; experiment: Expected efficacy of antibiotic agents; conditions: expected efficacy against Providencia rettgeri
# [11] = test system: Campylobacter jejuni; experiment: Expected efficacy of antibiotic agents; conditions: expected efficacy against Campylobacter jejuni
# [12] = test system: Neisseria gonorrhoeae; experiment: Expected efficacy of antibiotic agents; conditions: expected efficacy against Neisseria gonorrhoeae
# [13] = test system: Providencia stuartii; experiment: Expected efficacy of antibiotic agents; conditions: expected efficacy against Providencia stuartii
# [14] = test system: Moraxella catarrhalis; experiment: Expected efficacy of antibiotic agents; conditions: expected efficacy against Moraxella catarrhalis
# [15] = test system: Proteus vulgaris; experiment: Expected efficacy of antibiotic agents; conditions: expected efficacy against Proteus vulgaris
# [16] = test system: Bacteroides fragilis; experiment: Expected efficacy of antibiotic agents; conditions: expected efficacy against Bacteroides fragilis
# [17] = test system: Salmonella typhi; experiment: Expected efficacy of antibiotic agents; conditions: expected efficacy against Salmonella typhi
# [18] = test system: Proteus mirabilis; experiment: Expected efficacy of antibiotic agents; conditions: expected efficacy against Proteus mirabilis
# [19] = test system: Klebsiella pneumoniae; experiment: Expected efficacy of antibiotic agents; conditions: expected efficacy against Klebsiella pneumoniae
# [20] = test system: Vibrio cholerae; experiment: Expected efficacy of antibiotic agents; conditions: expected efficacy against Vibrio cholerae
# [21] = test system: Yersinia pestis; conditions: expected efficacy against Yersinia pestis
# [22] = test system: Pseudomonas aeruginosa; experiment: Expected efficacy of antibiotic agents; conditions: expected efficacy against Pseudomonas aeruginosa
# [23] = test system: Enterobacter aerogenes; experiment: Expected efficacy of antibiotic agents; conditions: expected efficacy against Enterobacter aerogenes
# [24] = test system: Neisseria meningitidis; experiment: Expected efficacy of antibiotic agents; conditions: expected efficacy against Neisseria meningitidis
# [25] = test system: Citrobacter diversus; experiment: Expected efficacy of antibiotic agents; conditions: expected efficacy against Citrobacter diversus
# [26] = test system: Haemophilus parainfluenzae; experiment: Expected efficacy of antibiotic agents; conditions: expected efficacy against Haemophilus parainfluenzae
# [27] = test system: Citrobacter freundii; experiment: Expected efficacy of antibiotic agents; conditions: expected efficacy against Citrobacter freundii
# [28] = test system: Shigella boydii; experiment: Expected efficacy of antibiotic agents; conditions: expected efficacy against Shigella boydii
# [29] = test system: Legionella pneumophila; conditions: expected efficacy against Legionella pneumophila
# [30] = test system: Chlamydia pneumoniae; experiment: Expected efficacy of antibiotic agents; conditions: expected efficacy against Chlamydia pneumoniae
# [31] = test system: Pseudomonas fluorescens; experiment: Expected efficacy of antibiotic agents; conditions: expected efficacy against Pseudomonas fluorescens
# [32] = test system: Escherichia coli; experiment: Expected efficacy of antibiotic agents; conditions: expected efficacy against Escherichia coli
# [33] = test system: Haemophilus influenzae; experiment: Expected efficacy of antibiotic agents; conditions: expected efficacy against Haemophilus influenzae
# [34] = test system: Klebsiella oxytoca; experiment: Expected efficacy of antibiotic agents; conditions: expected efficacy against Klebsiella oxytoca
# [35] = test system: Morganella morganii; experiment: Expected efficacy of antibiotic agents; conditions: expected efficacy against Morganella morganii
# [36] = test system: Shigella dysenteriae; experiment: Expected efficacy of antibiotic agents; conditions: expected efficacy against Shigella dysenteriae
# [37] = test system: Corynebacterium jeikeium; experiment: Expected efficacy of antibiotic agents; conditions: expected efficacy against Corynebacterium jeikeium
# [38] = test system: Clostridium difficile; experiment: Expected efficacy of antibiotic agents; conditions: expected efficacy against Clostridium difficile
# [39] = test system: Staphylococcus aureus (MSSA); experiment: Expected efficacy of antibiotic agents; conditions: expected efficacy against Staphylococcus aureus (MSSA)
# [40] = test system: Enterobacter cloacae; experiment: Expected efficacy of antibiotic agents; conditions: expected efficacy against Enterobacter cloacae
# [41] = test system: Chlamydia trachomatis; experiment: Expected efficacy of antibiotic agents; conditions: expected efficacy against Chlamydia trachomatis
# [42] = test system: Bordetella pertussis; experiment: Expected efficacy of antibiotic agents; conditions: expected efficacy against Bordetella pertussis
# [43] = test system: Klebsiella (Calymmatobacterium) granulomatis; experiment: Expected efficacy of antibiotic agents; conditions: expected efficacy against Klebsiella (Calymmatobacterium) granulomatis
# [44] = test system: Streptococcus pyogenes; experiment: Expected efficacy of antibiotic agents; conditions: expected efficacy against Streptococcus pyogenes
# [45] = test system: Clostridium perfringens; conditions: expected efficacy against Clostridium perfringens
# [46] = test system: Streptococcus agalactiae; experiment: Expected efficacy of antibiotic agents; conditions: expected efficacy against Streptococcus agalactiae
# [47] = test system: Streptococcus pneumoniae; experiment: Expected efficacy of antibiotic agents; conditions: expected efficacy against Streptococcus pneumoniae
# [48] = test system: Enterococcus faecalis; experiment: Expected efficacy of antibiotic agents; conditions: expected efficacy against Enterococcus faecalis
# [49] = test system: Acinetobacter lwoffii; experiment: Expected efficacy of antibiotic agents; conditions: expected efficacy against Acinetobacter lwoffii
# [50] = test system: Acinetobacter calcoaceticus; experiment: Expected efficacy of antibiotic agents; conditions: expected efficacy against Acinetobacter calcoaceticus
# [51] = test system: Brucella species; conditions: expected efficacy against Brucella species
# [52] = test system: Chlamydia psittaci; conditions: expected efficacy against Chlamydia psittaci
# [53] = test system: Enterobacter sakazakii; experiment: Expected efficacy of antibiotic agents; conditions: expected efficacy against Enterobacter sakazakii
# [54] = test system: Acinetobacter baumannii; experiment: Expected efficacy of antibiotic agents; conditions: expected efficacy against Acinetobacter baumannii
# [55] = test system: Mycoplasma pneumoniae; experiment: Expected efficacy of antibiotic agents; conditions: expected efficacy against Mycoplasma pneumoniae
# [56] = test system: Haemophilus ducreyi; experiment: Expected efficacy of antibiotic agents; conditions: expected efficacy against Haemophilus ducreyi
# [57] = test system: Corynebacterium urealyticum; experiment: Expected efficacy of antibiotic agents; conditions: expected efficacy against Corynebacterium urealyticum
# [58] = test system: Candida species; experiment: Expected efficacy of antifungal agents; conditions: expected efficacy against Candida species
smiles,measurement,setting,value
"O=C(O)c1cn(C2CC2)c2cc(N3CCNCC3)c(F)cc2c1=O [Ciprofloxacin, ciprofloxacin]",Efficacy,[1],yes
same,Efficacy,[2],yes
same,Efficacy,[3],yes
same,Efficacy,[4],no
same,Efficacy,[5],yes
same,Efficacy,[6],yes
same,Efficacy,[7],yes
same,Efficacy,[8],yes
same,Efficacy,[9],no
same,Efficacy,[10],yes
same,Efficacy,[11],yes
same,Efficacy,[12],yes
same,Efficacy,[13],yes
same,Efficacy,[14],yes
same,Efficacy,[15],yes
same,Efficacy,[16],no
same,Efficacy,[17],yes
same,Efficacy,[18],yes
same,Efficacy,[19],yes
same,Efficacy,[20],yes
same,Efficacy,[21],yes
same,Efficacy,[22],yes
same,Efficacy,[23],yes
same,Efficacy,[24],yes
same,Efficacy,[25],yes
same,Efficacy,[26],yes
same,Efficacy,[27],yes
same,Efficacy,[28],yes
same,Efficacy,[29],yes
same,Efficacy,[30],yes
same,Efficacy,[31],yes
same,Efficacy,[32],yes
same,Efficacy,[33],yes
same,Efficacy,[34],yes
same,Efficacy,[35],yes
same,Efficacy,[36],yes
same,Efficacy,[37],no
CC[C@H]1OC(=O)[C@H](C)[C@@H](O[C@H]2C[C@@](C)(OC)[C@@H](O)[C@H](C)O2)[C@H](C)[C@@H](O[C@@H]2O[C@H](C)C[C@H](N(C)C)[C@H]2O)[C@](C)(O)C[C@@H](C)CN(C)[C@H](C)[C@@H](O)[C@]1(C)O [Azithromycin],Efficacy,[38],no
same,Efficacy,[39],yes
same,Efficacy,[3],yes
same,Efficacy,[4],no
same,Efficacy,[40],no
same,Efficacy,[41],yes
same,Efficacy,[5],yes
same,Efficacy,[42],yes
same,Efficacy,[6],no
same,Efficacy,[7],no
same,Efficacy,[8],yes
same,Efficacy,[9],no
same,Efficacy,[43],no
same,Efficacy,[10],no
same,Efficacy,[11],yes
same,Efficacy,[44],yes
same,Efficacy,[13],no
same,Efficacy,[14],yes
same,Efficacy,[45],no
same,Efficacy,[15],no
same,Efficacy,[16],no
same,Efficacy,[46],yes
same,Efficacy,[18],no
same,Efficacy,[19],no
same,Efficacy,[47],yes
same,Efficacy,[48],no
same,Efficacy,[20],yes
same,Efficacy,[22],no
same,Efficacy,[23],no
same,Efficacy,[49],no
same,Efficacy,[24],yes
same,Efficacy,[50],no
same,Efficacy,[51],no
same,Efficacy,[25],no
same,Efficacy,[52],yes
same,Efficacy,[53],no
same,Efficacy,[27],no
same,Efficacy,[29],yes
same,Efficacy,[30],yes
same,Efficacy,[31],no
same,Efficacy,[54],no
same,Efficacy,[32],no
same,Efficacy,[33],yes
same,Efficacy,[34],no
same,Efficacy,[35],no
same,Efficacy,[55],yes
same,Efficacy,[37],no
C/C(=C\C(=O)OCCCCCCCCC(=O)O)C[C@@H]1OC[C@H](C[C@@H]2O[C@H]2[C@@H](C)[C@H](C)O)[C@@H](O)[C@H]1O [Bactroban],Efficacy,[39],yes
same,Efficacy,[1],no
same,Efficacy,[2],no
same,Efficacy,[40],no
same,Efficacy,[5],no
same,Efficacy,[42],no
same,Efficacy,[6],no
same,Efficacy,[7],no
same,Efficacy,[8],no
same,Efficacy,[9],yes
same,Efficacy,[43],no
same,Efficacy,[10],no
same,Efficacy,[11],no
same,Efficacy,[44],yes
same,Efficacy,[12],no
same,Efficacy,[13],no
same,Efficacy,[14],no
same,Efficacy,[45],no
same,Efficacy,[15],no
same,Efficacy,[17],no
same,Efficacy,[18],no
same,Efficacy,[19],no
same,Efficacy,[20],no
same,Efficacy,[21],no
same,Efficacy,[22],no
same,Efficacy,[23],no
same,Efficacy,[49],no
same,Efficacy,[24],no
same,Efficacy,[50],no
same,Efficacy,[51],no
same,Efficacy,[25],no
same,Efficacy,[53],no
same,Efficacy,[27],no
same,Efficacy,[28],no
same,Efficacy,[29],no
same,Efficacy,[56],no
same,Efficacy,[31],no
same,Efficacy,[54],no
same,Efficacy,[32],no
same,Efficacy,[57],no
same,Efficacy,[33],no
same,Efficacy,[34],no
same,Efficacy,[35],no
same,Efficacy,[36],no
same,Efficacy,[37],no
"C[C@@H]1[C@H](O)[C@@H](C)/C=C/C=C/CC/C=C/C=C/C=C/C=C/C(O[C@H]2O[C@H](C)[C@@H](O)[C@H](N)[C@@H]2O)CC2O[C@](O)(CC(O)C(O)CCC(O)CC(O)CC(O)CC(=O)O[C@H]1C)CC(O)C2C(=O)O (stereo partly shown) [Nystatin, nystatin]",Efficacy,[58],yes
